SMILES strings stand for the structures. Like-named read-outs stand apart in the source and are kept apart here.

In assay [1] the test system is Highly purified T cells. Kind of assay: T cell proliferation induced by anti-CD3 mAb + PMA (BrdU incorporation). In kind it is cell-based, Human. To be noted: Homo sapiens, T-cell. The source says: (§1) Various models may be used for testing an immunosuppressive effect. In vivo, for example, different transplantation models are available. They are strongly influenced by different immunogenicities, depending on the donor and recipient species used and depending on the nature of the transplanted organ. The survival time of transplanted organs can thus be used to measure the suppression of the immune response. In vitro, there exist also various models. The most used are lymphocyte activation tests. Usually activation is measured via lymphocyte proliferation. Inhibition of proliferation thus always means immunosuppression under the experimental conditions applied. There exist different stimuli for lymphocyte activation: • coculture of lymphocytes of […] (MLR = mixed lymphocyte reaction): lymphocytes expressing different minor and major antigens of the HLA-DR type (= alloantigens) activate each other non-specifically. • CD3 assay: here there is an activation of the T-lymphocytes via an exogenously added antibody (OKT3). This antibody reacts against the CD3 molecule located on the lymphocyte membrane. This molecule has a costimulatory function. […] This molecule is also located on the lymphocyte membrane, and delivers strong costimulatory signals.
(§2) T cells were purified by removing non-T cells. Briefly,monocytes were removed by cold agglutination. The resulting lymphoid cells were further purified by a cell enrichment immunocolumn [Cellect Human T (Biotex, Edmonton, Alberta, Canada)] by a process of negative selection.
(§3) Measurements of T cell proliferations induced by anti-CD3 mAb + PMA or anti-CD28 mAb + PMA
(§4) Highly purified T cells (10^6/ml) were stimulated by immobilized anti-CD3 àr anti-CD28 mAb in the presence of PMA. Anti-CD3 mAb (CLB-CD3; CLB, Amsterdam, The Netherlands) were fixed on the 96-microwell plates by incubating the wells with 50 µl of mAb solution (1/800 dilution in culture medium). Anti-CD28 mAb (CLB-CD28; CLB, Amsterdam, The Netherlands) 50 µl (1/650 dilution in culture medium) was added directly to the wells. Further, 20 µl PMA (Sigma, St. Louis, MO, USA) solution (final concentration: 0.5 ng/ml) was added. Subsequently, 20 µl of immunosuppressants were added by serial dilution in triplicate wells. Finally 100 µl of the T cell suspension (10^6/ml) was added. After 48-hour incubation at 37EC in 5% CO2 20 Φl BrdU (100 ΦM solution) (Cell Proliferation Elisa, Boehringer-Mannheim Belgium) was added to each well. After a further overnight incubation the T cell proliferation was measured using a colorimetric immunoassay for qualification of cell proliferation based on measurements of the incorporation of BrdU during DNAsynthesis. The optical density (OD) was measured by a Behring EL311 plate reader at 450 nm (reference wavelength: 690 nm). The percent suppression of proliferation by drugs was counted using the formula: Per cent inhibition =((OD + drugs) - (OD Cult. Med.))/((OD - drugs) - (OD Cult. Med.))x 100 [formula]
A general note: Incorporation of labelled thymidine or its analogues reports DNA synthesis.

Assay [2] relates to Highly purified T cells. Kind of assay: T cell proliferation induced by anti-CD28 mAb + PMA (BrdU incorporation). In kind it is cell-based, Human. As to conditions: Homo sapiens, T-cell.
Source text: as §1, §2, §3, §4

In assay [3] the test system is Peripheral blood mononuclear cells (PBMC). Description: Mixed lymphocyte reaction (MLR), [3H]-thymidine incorporation. In kind it is cell-based. To be noted: Homo sapiens.
Source text: as §1
Peripheral blood mononuclear cells (PBMC) were isolated from heparinized peripheral blood by density gradient centrifugation over Lymphoprep (Nycomed, Maorstua, Norway). Allogeneic PBMC or EBV-transformed human B cells [RPMI1788 (ATCC name CCL156)] which strongly express B7-1 and B7-2 were used as stimulator cells after irradiation with 30 Gy. MLR was performed in triplicate wells. After 5 days incubation at 37EC, 1 µCi [^3H]-thymidine was added to each cup. After a further 16 hours incubation, cells were harvested and counted in a β-counter.
The percent suppression of proliferation by drugs was counted using the formula Percent inhibition =((cpm + drugs) - cpm Cult. Med)/((cpm - drugs) - cpm Cult. Med.)x 100 [formula]

The mark [4] stands for this setting: Table II, read-out: IC50 in µM of pteridine derivative ACD3.
Where [5] appears, read: untitled structure table, no unit printed there, same values in Table II as IC50 in µM, read-out: aCD3.
Where [6] appears, read: Table II, read-out: IC50 in µM of pteridine derivative aCD28.
Where [7] appears, read: untitled structure table, no unit printed there, same values in Table II as IC50 in µM, read-out: aCD28.
Where [8] appears, read: Table II, read-out: IC50 in µM of pteridine derivative MLR.
[9] abbreviates: untitled structure table, no unit printed there, same values in Table II as IC50 in µM, read-out: MLR.

For `Nc1nc(N2CCOCC2)c2nc(-c3ccccc3)cnc2n1` [Compound 33, 2-amino-4-morpholino-6-phenylpteridine], the IC50 in the assay with Highly purified T cells [1] (setting [4]) was found to be 100 µM; with Highly purified T cells [1] (setting [5]), 100 µM; in the assay on Highly purified T cells [2] (setting [6]) it was 20 µM; in the assay on Highly purified T cells [2] (setting [7]) it was 20 µM; in assay [3] (setting [8]), 15 µM; in assay [3] (setting [9]), 15 µM.
For `Nc1nc(N2CCOCC2)c2nc(-c3ccc(Cl)cc3)cnc2n1` [Compound 34, 2-amino-4-morpholino-6-(4-chlorophenyl)pteridine], the IC50 was determined as 20 µM in the assay on Highly purified T cells [1] (setting [4]); 20 µM with Highly purified T cells [1] (setting [5]); 20 µM in the assay on Highly purified T cells [2] (setting [6]); 20 µM with Highly purified T cells [2] (setting [7]); 12 µM in assay [3] (setting [8]); 12 µM in assay [3] (setting [9]).
`COc1ccc(-c2cnc3nc(N)nc(N4CCOCC4)c3n2)cc1OC` [Compound 36, 2-amino-4-morpholino-6-(3,4-dimethoxyphenyl)pteridine]: the IC50 is 0.4 µM with Highly purified T cells [1] (setting [4]); 0.4 µM with Highly purified T cells [1] (setting [5]); 0.3 µM in the assay with Highly purified T cells [2] (setting [6]); 0.3 µM with Highly purified T cells [2] (setting [7]); 0.1 µM in assay [3] (setting [8]); 0.1 µM in assay [3] (setting [9]).
For the molecule `Nc1nc(N2CCCCC2)c2nc(-c3ccccc3)cnc2n1` [Compound 37, 2-amino-4-piperidino-6-phenylpteridine], the IC50 in the assay on Highly purified T cells [1] (setting [4]) is 80 µM; in the assay on Highly purified T cells [1] (setting [5]), 80 µM; in the assay on Highly purified T cells [2] (setting [6]), 20 µM; in the assay on Highly purified T cells [2] (setting [7]), 20 µM; in assay [3] (setting [8]), 15 µM; in assay [3] (setting [9]), 15 µM.
As to `Nc1nc(N2CCCCC2)c2nc(-c3ccc(Cl)cc3)cnc2n1` [Compound 38, 2-amino-4-piperidino-6-(4-chlorophenyl)pteridine], the IC50 in the assay with Highly purified T cells [1] (setting [4]) turned out to be 70 µM; with Highly purified T cells [1] (setting [5]) it was 70 µM; with Highly purified T cells [2] (setting [6]), 25 µM; in the assay on Highly purified T cells [2] (setting [7]) it was 25 µM; in assay [3] (setting [8]), 15 µM; in assay [3] (setting [9]), 15 µM.
With `CN1CCN(c2nc(N)nc3ncc(-c4ccccc4)nc23)CC1` [Compound 41, 2-amino-4-N-methylpiperazino-6-phenylpteridine], the IC50 in the assay on Highly purified T cells [1] (setting [4]) is 40 µM; in the assay on Highly purified T cells [1] (setting [5]), 40 µM; in the assay with Highly purified T cells [2] (setting [6]), 25 µM; with Highly purified T cells [2] (setting [7]), 25 µM; in assay [3] (setting [8]) it was 15 µM; in assay [3] (setting [9]), 15 µM.
Consider `CN1CCN(c2nc(N)nc3ncc(-c4ccc(Cl)cc4)nc23)CC1` [Compound 42, 2-amino-4-N-methylpiperazino-6-(4-chlorophenyl)pteridine], for which the IC50 worked out at 11 µM in the assay with Highly purified T cells [1] (setting [4]); 11 µM with Highly purified T cells [1] (setting [5]); 4.2 µM with Highly purified T cells [2] (setting [6]); 4.2 µM with Highly purified T cells [2] (setting [7]); 4.8 µM in assay [3] (setting [8]); 4.8 µM in assay [3] (setting [9]).
Take `COc1ccc(-c2cnc3nc(N)nc(N4CCN(C)CC4)c3n2)cc1` [Compound 43, 2-amino-4-N-methylpiperazino-6-(4-methoxyphenyl)pteridine]: the IC50 in the assay with Highly purified T cells [1] (setting [4]) is 11.7 µM; in the assay with Highly purified T cells [1] (setting [5]), 11.7 µM; in the assay on Highly purified T cells [2] (setting [6]), 4.2 µM; in the assay on Highly purified T cells [2] (setting [7]) it was 4.2 µM; in assay [3] (setting [8]) it was 12.3 µM; in assay [3] (setting [9]) it was 12.3 µM.
Turning to `COc1ccc(-c2cnc3nc(N)nc(N4CCN(C)CC4)c3n2)cc1OC` [Compound 44], the IC50 in the assay with Highly purified T cells [1] (setting [4]) came to 7.3 µM; with Highly purified T cells [1] (setting [5]) it was 7.3 µM; in the assay on Highly purified T cells [2] (setting [6]) it was 6.5 µM; in the assay with Highly purified T cells [2] (setting [7]), 6.5 µM; in assay [3] (setting [8]), 2 µM; in assay [3] (setting [9]), 2 µM.
For `Nc1nc(N2CCNCC2)c2nc(-c3ccccc3)cnc2n1` [Compound 46, 2-amino-4-piperazino-6-phenylpteridine], the IC50 with Highly purified T cells [1] (setting [4]) amounted to 11.7 µM; in the assay with Highly purified T cells [1] (setting [5]) it was 11.7 µM; in the assay on Highly purified T cells [2] (setting [6]), 5 µM; with Highly purified T cells [2] (setting [7]), 5 µM; in assay [3] (setting [8]), 12 µM; in assay [3] (setting [9]) it was 12 µM.

The record behind these values is patent EP1144412B1, “IMMUNOSUPPRESSIVE EFFECTS OF PTERIDINE DERIVATIVES” (4 AZA Bioscience nv, priority 1998, dated 2000).
